{"source": "patent US8846928B2", "about": "(Portola Pharmaceuticals, Inc., priority 2010, dated 2014)"}
{"biological_target": "T1, full length active recombinant SYK enzyme (Homo sapiens, UniProt P43405)", "T1 construct": "full length active recombinant SYK enzyme (Millipore, Calif.); purchased Millipore", "assay": "Inhibition of Syk tyrosine phosphorylation activity (LANCE TR-FRET kinase assay)", "format": "biochemical", "units": {"IC50": "µM"}}
{"smiles": "CC[C@H](CN)Nc1nc(Nc2ccc3ncccc3c2)c(C(N)=O)cc1F", "note": "[Example 94, (R)-6-(1-aminobutan-2-ylamino)-5-fluoro-2-(quinolin-6-ylamino)nicotinamide]", "IC50": "0.001 to 0.01"}
{"smiles": "CC[C@H](CN)Nc1nc(Nc2cncc(C)c2)c(C(N)=O)cc1F", "note": "[Example 95, (R)-6-(1-aminobutan-2-ylamino)-5-fluoro-2-(5-methylpyridin-3-ylamino)nicotinamide]", "IC50": "0.01 to 0.1"}
{"smiles": "CC[C@H](CN)Nc1nc(Nc2cncc(OC)c2)c(C(N)=O)cc1F", "note": "[Example 96, (R)-6-(1-aminobutan-2-ylamino)-5-fluoro-2-(5-methoxypyridin-3-ylamino)nicotinamide]", "IC50": "0.01 to 0.1"}
{"smiles": "CC[C@@H](Nc1nc(Nc2ccc3cccnc3c2)c(C(N)=O)cc1F)C(N)=O", "note": "[Example 97, (R)-6-(1-amino-1-oxobutan-2-ylamino)-5-fluoro-2-(quinolin-7-ylamino)nicotinamide]", "IC50": "0.01 to 0.1"}
{"smiles": "CC[C@@H](Nc1nc(Nc2ccc3ccncc3c2)c(C(N)=O)cc1F)C(N)=O", "note": "[Example 98, (R)-6-(1-amino-1-oxobutan-2-ylamino)-5-fluoro-2-(isoquinolin-7-ylamino)nicotinamide]", "IC50": "0.01 to 0.1"}
{"smiles": "CC[C@@H](Nc1nc(Nc2ccc3cnccc3c2)c(C(N)=O)cc1F)C(N)=O", "note": "[Example 99]", "IC50": "0.01 to 0.1"}
{"smiles": "CC[C@@H](Nc1nc(Nc2ccc3ncccc3c2)c(C(N)=O)cc1F)C(N)=O", "note": "[Example 100]", "IC50": "0.01 to 0.1"}
{"smiles": "Cc1cccc(Nc2nc(N[C@@H]3CCCC[C@@H]3N)ccc2C(N)=O)c1", "note": "[Example 102, 6-((1R,2S)-2-aminocyclohexylamino)-2-(m-tolylamino)nicotinamide]", "IC50": "0.001 to 0.01"}
{"smiles": "COC[C@H](N)CNc1ccc(C(N)=O)c(Nc2cccc(C)c2)n1", "note": "[Example 103, (R)-2-(m-toluidino)-6-(2-amino-3-methoxypropylamino)nicotinamide]", "IC50": "0.1 to 1"}
{"smiles": "Cc1cccc(Nc2nc(N[C@H](C)C(N)=O)ccc2C(N)=O)c1", "note": "[Example 104, (R)-2-(m-toluidino)-6-(1-amino-1-oxopropan-2-ylamino)nicotinamide]", "IC50": "0.1 to 1"}
{"smiles": "Cc1cccc(Nc2nc(N[C@H](CC(C)C)C(N)=O)ccc2C(N)=O)c1", "note": "[Example 105, (R)-6-(1-amino-4-methyl-1-oxopentan-2-ylamino)-2-(m-tolylamino)nicotinamide]", "IC50": "0.1 to 1"}
{"smiles": "N#Cc1cc(C(N)=O)c(Nc2cccc(-n3nccn3)c2)nc1N[C@@H]1CCCC[C@@H]1N", "note": "[Example 106, 2-(3-(2H-1,2,3-triazol-2-yl)phenylamino)-6-((1R,2S)-2-aminocyclohexylamino)-5-cyanonicotinamide]", "IC50": "0.001 to 0.01"}
{"smiles": "Cc1cccc(Nc2nc(N[C@@H]3CCCC[C@@H]3N)c(C#N)cc2C(N)=O)c1", "note": "[Example 107, 6-((1R,2S)-2-aminocyclohexylamino)-5-cyano 2-(m-tolylamino)nicotinamide]", "IC50": "0.001 to 0.01"}
{"smiles": "C[C@H](N)CNc1nc(Nc2cccc(-n3nccn3)c2)c(C(N)=O)cc1C#N", "note": "[Example 108, (S)-2-(3-(2H-1,2,3-triazol-2-yl)phenylamino)-6-(2-aminopropylamino)-5-cyanonicotinamide]", "IC50": "0.01 to 0.1"}
{"smiles": "C[C@H](CN)Nc1nc(Nc2cccc(-n3nccn3)c2)c(C(N)=O)cc1C#N", "note": "[Example 109, (R)-2-(3-(2H-1,2,3-triazol-2-yl)phenylamino)-6-(1-aminopropan-2-ylamino)-5-cyanonicotinamide]", "IC50": "0.01 to 0.1"}
{"smiles": "CC(C)C[C@H](CN)Nc1nc(Nc2cccc(-n3nccn3)c2)c(C(N)=O)cc1C#N", "note": "[Example 110, (R)-2-(3-(2H-1,2,3-triazol-2-yl)phenylamino)-6-(1-amino-4-methylpentan-2-ylamino)-5-cyanonicotinamide]", "IC50": "0.001 to 0.01"}
{"smiles": "N#Cc1cc(C(N)=O)c(Nc2cccc(-n3nccn3)c2)nc1NC[C@@H](N)C1CC1", "note": "[Example 111, (S)-2-(3-(2H-1,2,3-triazol-2-yl)phenylamino)-6-(2-amino-2-cyclopropylethylamino)-5-cyanonicotinamide]", "IC50": "0.1 to 1"}
{"smiles": "C[C@H](CN)Nc1nc(Nc2cccc3nn(C)cc23)c(C(N)=O)cc1C#N", "note": "[Example 112, (R)-6-(1-aminopropan-2-ylamino)-5-cyano-2-(2-methyl-2H-indazol-4-ylamino)nicotinamide]", "IC50": "0.01 to 0.1"}
{"smiles": "N#Cc1cc(C(N)=O)c(Nc2ccc3ncccc3c2)nc1N[C@@H]1CCCC[C@@H]1N", "note": "[Example 113, 6-((1R,2S)-2-aminocyclohexylamino)-5-cyano-2-(quinolin-6-ylamino)nicotinamide]", "IC50": "0.001 to 0.01"}
{"smiles": "C[C@H](CN)Nc1nc(Nc2ccc3ncccc3c2)c(C(N)=O)cc1C#N", "note": "[Example 114, (R)-6-(1-aminopropan-2-ylamino)-5-cyano-2-(quinolin-6-ylamino)nicotinamide]", "IC50": "0.01 to 0.1"}
{"smiles": "Cn1cc2c(Nc3nc(N[C@@H]4CCCC[C@@H]4N)c(C#N)cc3C(N)=O)cccc2n1", "note": "[Example 115, 6-((1R,2S)-2-aminocyclohexylamino)-5-cyano-2-(2-methyl-2H-indazol-4-ylamino)nicotinamide]", "IC50": "0.001 to 0.01"}
{"smiles": "NC(=O)c1cc(C(N)=O)c(N[C@@H]2CCCC[C@@H]2N)nc1Nc1cccc(-n2nccn2)c1", "note": "[Example 116, 2-(3-(2H-1,2,3-triazol-2-yl)phenylamino)-6-((1R,2S)-2-aminocyclohexylamino)pyridine-3,5-dicarboxamide]", "IC50": "0.1 to 1"}
{"smiles": "N#Cc1cc(C(N)=O)c(Nc2ccc3[nH]ncc3c2)nc1N[C@@H]1CCCC[C@@H]1N", "note": "[Example 117]", "IC50": "0.001 to 0.01"}
{"smiles": "N#Cc1cc(C(N)=O)c(Nc2ccc3ncsc3c2)nc1N[C@@H]1CCCC[C@@H]1N", "note": "[Example 118, 6-((1R,2S)-2-aminocyclohexylamino)-2-(benzo[d]thiazol-6-ylamino)-5-cyanonicotinamide]", "IC50": "0.001 to 0.01"}
{"smiles": "N#Cc1cc(C(N)=O)c(Nc2ccc3ncsc3c2)nc1NC[C@@H](N)C1CC1", "note": "[Example 119, (S)-6-(2-amino-2-cyclopropylethylamino)-2-(benzo[d]thiazol-6-ylamino)-5-cyanonicotinamide]", "IC50": "0.01 to 0.1"}
{"smiles": "Cn1ncc2c(Nc3nc(N[C@@H]4CCCC[C@@H]4N)c(C#N)cc3C(N)=O)cccc21", "note": "[Example 120, 6-((1R,2S)-2-aminocyclohexylamino)-5-cyano-2-(1-methyl-1H-indazol-4-ylamino)nicotinamide]", "IC50": "0.001 to 0.01"}
{"smiles": "N#Cc1cc(C(N)=O)c(Nc2ccc(-n3cccn3)cc2)nc1N[C@@H]1CCCC[C@@H]1N", "note": "[Example 121, 2-(4-(1H-pyrazol-1-yephenylamino)-6-(1R,2S)-2-aminocyclohexylamino)-5-cyanonicotinamide]", "IC50": "0.01 to 0.1"}
{"smiles": "CC(C)C[C@H](CN)Nc1nc(Nc2ccc3ncccc3c2)c(C(N)=O)cc1C#N", "note": "[Example 122, (R)-6-(1-amino-4-methylpentan-2-ylamino)-5-cyano-2-(quinolin-6-ylamino)nicotinamide]", "IC50": "0.001 to 0.01"}
{"smiles": "CC(C)C[C@H](CN)Nc1nc(Nc2ccc3ncsc3c2)c(C(N)=O)cc1C#N", "note": "[Example 123, (R)-6-(1-amino-4-methylpentan-2-ylamino)-2-(benzo[d]thiazol-6-ylamino)-5-cyanonicotinamide]", "IC50": "0.001 to 0.01"}
{"smiles": "CC(C)C[C@@H](Nc1nc(Nc2ccc3ncccc3c2)c(C(N)=O)cc1C#N)C(N)=O", "note": "[Example 124, (R)-6-(1-amino-4-methyl-1-oxopentan-2-ylamino)-2-(quinolin-6-ylamino)-5-cyanonicotinamide]", "IC50": "0.01 to 0.1"}
